# Assays:
# [1] = IL-7 administration with or without castration after allogeneic HSCT, thymic cellularity; type: in vivo, mice
# Description: Male C57BL/6J (B6, H-2b), C3FeB6F1/J([B6 3 C3H]F1; H-2b/k), B10.BR (H-2k), B6D2F1/J (H-2b/d), CBA/J (H-2k), Balb/c (H2-d), IL7−/− and KGF−/− mice were obtained from the Jackson Laboratory (Bar Harbor, Maine) and used in experiments when they were between 8 and 12 weeks of age. KGF−/− and IL7−/− were used between 4 and 7 months of age. HSCT protocols were approved by the Memorial Sloan-Kettering Cancer Center Institutional Animal Care and Use Committee. The BM cells were removed aseptically from femurs and tibias. Donor BM was depleted of T cells by incubation with anti-Thy-1.2 for 30 minutes at 4° C. followed by incubation with Low-TOX-M rabbit complement (Cedarlane Laboratories, Hornby, ON, Canada) for 1 hour at 37° C. Splenic T cells (for GVHD analysis) were obtained by purification over a nylon wool column followed by red cell removal with ammonium chloride red cell lysis buffer. Cells (5×10^6 BM cells with or without splenic T cells and leukemia cells) were resuspended in Dulbecco modified essential medium (Life Technologies, Grand Island, N.Y.) and transplanted by tail vein infusion (0.25 mL total volume) into lethally irradiated recipients on day 0. Prior to transplantation, on day 0, recipients received 1300 cGy total body irradiation (^137Cs source) as split dose with 3 hours between doses (to reduce gastrointestinal toxicity). Mice were housed in sterilized microisolator cages and received normal chow and autoclaved hyperchlorinated drinking water (pH 3.0).
# IL-7 were either given from days 0 to 13 or 21 to 27 intraperitoneally at 10 μg/day for immune reconstitution studies. PBS was injected into control mice at the same time points.
# BM cells, splenocytes or thymocytes were washed in FACS buffer (phosphate buffered saline (PBS)/2% bovine serum albumin (BSA)/0.1% azide) and 1-3×10^6 cells were incubated for 30 minutes at 4° C. with CD16/CD32 FcR block. Cells were then incubated for 30 minutes at 4° C. with primary antibodies and washed twice with FACS buffer. Where necessary, cells were incubated with conjugated Streptavidin for a further 30 minutes at 4° C. The stained cells were resuspended in FACS buffer and analyzed on a FACSCalibur™ flow cytometer (Becton Dickinson, San Jose, Calif.) with CellQuest™ software.
# [2] = test system: IL-7-dependent murine pre-B cell line 2E8; assay: Thymidine incorporation proliferation assay with IL-7-dependent cell line; type: cell-based; conditions: 2E8 cells
# Protocol: Tissue culture medium consisted of RPMI 1640 supplemented with 10% heat inactivated fetal calf serum, 100 U/mL penicillin, […] streptomycin, and 2 mM L-glutamine (as well as […] 2-mercaptoethanol for the culture of 32Dp210 cells and proliferation assays).
# [3] = Chemical castration of aged female Balb/cJ mice, radioimmunoassay of plasma sex steroids; type: in vivo; conditions: 10 mg/kg s.c., 1 month slow release formulation
# Protocol: To do this, aged (i.e., 2 year old) female Balb/cJ (H-2d) mice are either surgically castrated (e.g., by removing the ovaries according to standard methods), or are chemically castrated. For chemical castration, mice are injected subcutaneously with 10 mg/kg Lupron (a GnRH agonist) as a 1 month slow release formulation. Alternatively mice are injected with a GnRH antagonist (e.g., Cetrorelix or Abarelix). Confirmation of loss of sex steroids is performed by standard radioimmunoassay of plasma samples following manufacturer's instructions, and may be monitored throughout the procedure.
# [4] = Chemical castration versus surgical castration after cyclophosphamide T cell depletion; type: in vivo, mice
# Description: FIG. 9: Changes in thymus (open bars), spleen (gray bars) and lymph node (black bars) cell numbers following treatment with cyclophosphamide, a chemotherapy agent, and surgical or chemical castration performed on the same day. Note the rapid expansion of the thymus in castrated animals when compared to the non-castrate (cyclophosphamide alone) group at 1 and 2 weeks post-treatment. In addition, spleen and lymph node numbers of the castrate group were well increased compared to the cyclophosphamide alone group. (n=3-4 per treatment group and time point).
# Old mice (e.g., 2 years old) were injected with cyclophosphamide (200 mg/kg body wt over two days) and castrated.
# FIG. 9 illustrates the use of chemical castration compared to surgical castration in enhancement of T cell regeneration. […] The enhancing effects were equivalent on thymic expansion and also the recovery of spleen and lymph node. The kinetics of chemical castration are slower than surgical, that is, mice take about 3 weeks longer to decrease their circulating sex steroid levels. However, chemical castration is still as effective as surgical castration and can be considered to have an equivalent effect.
# [5] = Sex steroid ablation therapy of the patient with an LHRH agonist (Example 6); type: in vivo, human; conditions: single dose effective for 3 months
# Protocol: The patient was given sex steroid ablation therapy in the form of delivery of an LHRH agonist. This was given in the form of either Leucrin (depot injection; 22.5 mg) or Zoladex® (implant; 10.8 mg), either one as a single dose effective for 3 months. […] In some cases it is also necessary to deliver a suppresser of adrenal gland production of sex steroids. Cosudex® (5 mg/day or 50 mg/day) may also be given as one tablet per day for the duration of the sex steroid ablation therapy. Alternatively, the patient is given a GnRH antagonist, e.g., Cetrorelix or Abarelix as a subcutaneous injection
# [6] = chronic administration; cited from earlier work
compound,measurement,setting,value
IL-7: Recombinant human IL-7 provided by Cytheris,"thymic cellularity, combined treatment (castration and IL-7)",[1]; day 14 after allo-HSCT,significantly more cells
same,"thymic cellularity, IL-7 treated sham-castrated versus PBS treated sham-castrated","[1]; day 14 after allo-HSCT, 10 ug/day i.p. days 0-13",no difference
same,effect of IL-7 treatment combined with castration on thymic cellularity,[1]; day 28 after allo-HSCT,additive effect
same,"thymic cellularity, IL-7 alone group versus control group",[1]; day 28 after allo-HSCT,significantly higher
same,proliferative effect on murine cells,[2],equal to murine IL-7
"CCNC(=O)[C@@H]1CCCN1C(=O)[C@H](CCCNC(=N)N)NC(=O)[C@H](CC(C)C)NC(=O)[C@@H](CC(C)C)NC(=O)[C@H](Cc1ccc(O)cc1)NC(=O)[C@H](CO)NC(=O)[C@H](Cc1c[nH]c2ccccc12)NC(=O)[C@H](Cc1c[nH]cn1)NC(=O)[C@@H]1CCC(=O)N1 [Lupron, leuprolide acetate]",time post injection to castrate levels (<0.5 ng estrogen/ml),[3],3-4 weeks
CCNC(=O)[C@@H]1CCCN1C(=O)[C@H](CCCN=C(N)N)NC(=O)[C@H](CC(C)C)NC(=O)[C@@H](Cc1c[nH]c2ccccc12)NC(=O)[C@H](Cc1ccc(O)cc1)NC(=O)[C@H](CO)NC(=O)[C@H](Cc1c[nH]c2ccccc12)NC(=O)[C@H](Cc1cnc[nH]1)NC(=O)[C@@H]1CCC(=O)N1 [Deslorelin],additional time to decrease circulating sex steroid levels versus surgical castration,[4]; chemical castration,about 3 weeks
same,rate of regeneration post-cyclophosphamide treatment compared to surgical castration,"[4]; injected for four weeks, T cell regeneration",comparable rate of regeneration
same,enhancing effects on thymic expansion and recovery of spleen and lymph node versus surgical castration,[4]; post-cyclophosphamide,equivalent
"CC(C)C[C@H](NC(=O)[C@@H](COC(C)(C)C)NC(=O)[C@H](Cc1ccc(O)cc1)NC(=O)[C@H](CO)NC(=O)[C@H](Cc1c[nH]c2ccccc12)NC(=O)[C@H](Cc1cnc[nH]1)NC(=O)[C@@H]1CCC(=O)N1)C(=O)N[C@@H](CCCNC(=N)N)C(=O)N1CCC[C@H]1C(=O)NNC(N)=O [Zoladex, goserelin acetate]",reduction of sex steroid levels,[5],effective in reducing sex steroid levels sufficiently to reactivate the thymus
same,serum testosterone levels in males,[6],a range normally seen in surgically castrated men
same,time to sustained suppression of pituitary LH after initiation of therapy,[6],approximately three

# — patent US20070274946A1, “Tolerance to Graft Prior to Thymic Reactivation” (Norwood Immunoloty, Ltd., priority 1999, published 2007)
